Laboratory results reported in patent publication EP4711367A1, “PYRAZOLOPYRAZINE COMPOUND AND METHOD FOR PREPARING CRYSTAL FORM THEREOF” (CMS Research & Development Pte. Ltd., priority 2023, dated 2024).

Tests used:
[1] = biological target: T1, JAK1(h) (Homo sapiens, UniProt P23458); assay: In vitro activity test of JAK1 kinase ([γ-33P]-ATP filter assay, Eurofins); format: biochemical
T1 construct: purchased Eurofins (UK)
Protocol: Recombinant human JAK1, JAK2, JAK3, and Tyk2 proteases, along with major instruments and reagents, were provided by Eurofins in the UK.
JAK2, JAK3, and TYK2 were diluted with: 20 mM 3-(N-morpholino)propanesulfonic acid (MOPS), 1 mM EDTA, 0.01% Brij-35.5% glycerol, 0.1% β-mercaptoethanol, 1 mg/mL BSA; JAK1 was diluted with: 20 mM TRIS, 0.2 mM EDTA, 0.1% β-mercaptoethanol, 0.01% Brij-35.5% glycerol. The compound of formula (I) was prepared as a 100% DMSO solution and diluted to 50 times the final assay concentration. The test compound was subjected to a 3-fold serial dilution, with final concentrations ranging from 10 µM to 0.001 µM across 9 concentrations, and the DMSO content in the detection reaction was 2%. The working stock solution of this compound was added as the first component of the reaction to the assay wells, followed by the addition of the remaining components according to the protocol detailed below.
JAK1(h) was incubated with 20 mM Tris/HCl pH 7.5, 0.2 mM EDTA, 500 µM MGEEPLYWSFPAKKK, 10 mM magnesium acetate, and [γ-^33P]-ATP (activity and concentration adjusted as needed). The reaction was initiated by adding the Mg/ATP mixture and incubated at room temperature for 40 minutes, then terminated by adding 0.5% phosphoric acid. […]
The IC50 results were analyzed using XLFIT5 (205 formula) from IDBS, as detailed in Table 12. […]

[2] = test system: IL-23-induced epidermal hyperplasia model of the mouse ear pinna; assay: Pharmacodynamic test of psoriasis model in mice (IL-23 injected into the ear pinna); format: in vivo, C57BL/6 mouse; details: for Ear thickness (mm)/day: right ear
Protocol: Objective: The purpose of this experiment is to evaluate the preventive and therapeutic effects of the test substance on IL-23-induced psoriasis-like skin lesions in mice, which were established by intradermal injection of IL-23 into the mouse ear pinna.
Methods: After the acclimation period, 50 mice were divided into 5 groups of 10 each by Excel complete randomization, namely: vehicle (0.5% MC & 0.5% Tween 80) control group, model group, and compound of formula (I) (10, 20, 50 mg/kg) groups. Except for the vehicle control group, the remaining groups were intradermally injected with IL-23 (3 µg/10 µL/mouse/day, QD) in the right ear for 8 consecutive days (D1 to D8), while the control group animals were intradermally injected with an equal volume of normal saline solution (10 µL/mouse/day, QD) in the right ear for 8 consecutive days (D1 to D8). During the modeling period, the vehicle or test drug was orally administered twice daily (Bid) at 6-hour intervals for 8 consecutive days (D1 to D8). During the administration period, the body weight of the animals was monitored every two days. On D1, D3, D5, D7 (all before IL-23 injection), and D9, the thickness of the right ear of the mice was measured, and the appearance of the ear pinna was scored. At the end of the experiment (Day 10), the modeled ear was excised, and an ear piece was punched along the ear pinna edge using an 8 mm punch and weighed. The punched right ear piece was fixed with formalin and subjected to histopathological examination (H&E) staining.

[3] = 10 mg/kg oral gavage twice daily for 8 days, day 1
[4] = 10 mg/kg oral gavage twice daily for 8 days, day 3
[5] = 10 mg/kg oral gavage twice daily for 8 days, day 5
[6] = 10 mg/kg oral gavage twice daily for 8 days, day 7
[7] = 10 mg/kg oral gavage twice daily for 8 days, day 9
[8] = 20 mg/kg oral gavage twice daily for 8 days, day 1
[9] = 20 mg/kg oral gavage twice daily for 8 days, day 3
[10] = 20 mg/kg oral gavage twice daily for 8 days, day 5
[11] = 20 mg/kg oral gavage twice daily for 8 days, day 7
[12] = 20 mg/kg oral gavage twice daily for 8 days, day 9
[13] = 50 mg/kg oral gavage twice daily for 8 days, day 1
[14] = 50 mg/kg oral gavage twice daily for 8 days, day 3
[15] = 50 mg/kg oral gavage twice daily for 8 days, day 5
[16] = 50 mg/kg oral gavage twice daily for 8 days, day 7
[17] = 50 mg/kg oral gavage twice daily for 8 days, day 9
[18] = 10, 20, 50 mg/kg oral gavage twice daily for 8 consecutive days

T1 sequence (P23458 whole entry): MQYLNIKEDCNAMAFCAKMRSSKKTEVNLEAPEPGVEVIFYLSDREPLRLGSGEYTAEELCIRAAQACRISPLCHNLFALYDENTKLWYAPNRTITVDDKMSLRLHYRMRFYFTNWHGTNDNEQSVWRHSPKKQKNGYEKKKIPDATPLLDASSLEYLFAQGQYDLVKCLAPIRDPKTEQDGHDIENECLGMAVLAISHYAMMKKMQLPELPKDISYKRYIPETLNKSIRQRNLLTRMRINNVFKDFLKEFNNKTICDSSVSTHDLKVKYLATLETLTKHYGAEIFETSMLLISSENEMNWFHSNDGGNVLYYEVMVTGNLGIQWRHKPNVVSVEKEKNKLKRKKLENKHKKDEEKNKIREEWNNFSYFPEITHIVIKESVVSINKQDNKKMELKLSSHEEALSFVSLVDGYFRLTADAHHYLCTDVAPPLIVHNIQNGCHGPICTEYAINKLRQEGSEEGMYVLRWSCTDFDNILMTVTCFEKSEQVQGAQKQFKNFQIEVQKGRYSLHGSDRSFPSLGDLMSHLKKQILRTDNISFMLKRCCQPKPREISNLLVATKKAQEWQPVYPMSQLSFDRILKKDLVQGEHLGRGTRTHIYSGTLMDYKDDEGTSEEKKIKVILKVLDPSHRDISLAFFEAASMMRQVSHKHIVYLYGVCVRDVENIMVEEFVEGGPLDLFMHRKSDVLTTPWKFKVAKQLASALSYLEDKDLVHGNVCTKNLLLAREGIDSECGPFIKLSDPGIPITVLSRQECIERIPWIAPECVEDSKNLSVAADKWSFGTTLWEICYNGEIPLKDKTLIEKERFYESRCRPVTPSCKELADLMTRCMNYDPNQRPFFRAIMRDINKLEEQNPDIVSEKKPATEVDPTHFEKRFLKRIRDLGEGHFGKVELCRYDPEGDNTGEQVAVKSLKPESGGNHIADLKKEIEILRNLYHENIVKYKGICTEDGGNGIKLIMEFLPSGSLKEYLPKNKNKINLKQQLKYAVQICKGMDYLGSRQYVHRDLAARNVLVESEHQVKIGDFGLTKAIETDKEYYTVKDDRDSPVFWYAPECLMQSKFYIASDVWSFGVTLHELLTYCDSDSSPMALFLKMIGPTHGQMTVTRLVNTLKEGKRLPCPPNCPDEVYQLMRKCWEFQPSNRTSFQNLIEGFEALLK

Cn1cc(-c2cn3nccc3c(-c3cnn([C@]4(CC#N)CC5(C[C@H](C#N)C5)C4)c3)n2)cn1 (stereo partly drawn) [Compound of formula (I)]
IC50 [1]: 10 nM
Body weight (g)/day [2, 3]: 19.77 ± 0.59 g
Ear comprehensive score/day [2, 3]: 0.00 ± 0.00
Body weight (g)/day [2, 4]: 19.69 ± 0.57 g
Ear comprehensive score/day [2, 4]: 0.00 ± 0.00
Body weight (g)/day [2, 5]: 20.02 ± 0.77 g
Ear comprehensive score/day [2, 5]: 0.60 ± 0.52
Body weight (g)/day [2, 6]: 19.69 ± 0.63 g
Ear comprehensive score/day [2, 6]: 1.70 ± 1.06
Body weight (g)/day [2, 7]: 20.04 ± 0.72 g
Ear comprehensive score/day [2, 7]: 2.60 ± 1.43
Ear thickness (mm)/day [2, 7]: 0.430 ± 0.048 mm
Body weight (g)/day [2, 8]: 19.77 ± 0.54 g
Ear comprehensive score/day [2, 8]: 0.00 ± 0.00
Body weight (g)/day [2, 9]: 19.85 ± 0.78 g
Ear comprehensive score/day [2, 9]: 0.00 ± 0.00
Body weight (g)/day [2, 10]: 20.13 ± 0.78 g
Ear comprehensive score/day [2, 10]: 0.60 ± 0.70
Body weight (g)/day [2, 11]: 19.80 ± 0.92 g
Ear comprehensive score/day [2, 11]: 1.40 ± 0.52
Body weight (g)/day [2, 12]: 20.27 ± 0.90 g
Ear comprehensive score/day [2, 12]: 1.50 ± 0.71
Ear thickness (mm)/day [2, 8]: 0.190 ± 0.009 mm
Ear thickness (mm)/day [2, 11]: 0.350 ± 0.025 mm
Body weight (g)/day [2, 13]: 19.78 ± 0.53 g
Ear comprehensive score/day [2, 13]: 0.00 ± 0.00
Body weight (g)/day [2, 14]: 19.85 ± 0.68 g
Ear comprehensive score/day [2, 14]: 0.00 ± 0.00
Body weight (g)/day [2, 15]: 20.41 ± 0.70 g
Ear comprehensive score/day [2, 15]: 0.10 ± 0.32
Body weight (g)/day [2, 16]: 20.15 ± 0.56 g
Ear comprehensive score/day [2, 16]: 1.40 ± 0.70
Body weight (g)/day [2, 17]: 20.28 ± 0.76 g
Ear comprehensive score/day [2, 17]: 1.00 ± 0.47
effect on the body weight of the animals (in words) [2, 18]: no significant effect
effect on the weight of the modeled ear (in words) [2, 18]: significantly reduce
effect on the total score of the modeled ear (in words) ([2]; 10, 20, 50 mg/kg oral gavage twice daily for 8 consecutive days, from D5 to D9): significantly reduce
effect on the thickness of the modeled ear (in words) ([2]; dose of 50 mg/kg, as early as D3): significantly reduces
effect on the thickness of the modeled ear (in words) ([2]; doses of 10 and 20 mg/kg, starting from day 5): significantly reduces
